Measured values as given in ChEMBL document CHEMBL1201862, “PubChem BioAssay data set” (2004).
Active and inactive are the calls of the source.

Columns and labels:
[1] = HEp-2 cell cytotoxicity, dose response, cytotoxicity control for RSV inhibitor project, HTS (AID 2410); format: functional; conditions: human respiratory syncytial virus
[2] = system: Vero; test: cells; format: functional, cell-based; conditions: Chlorocebus sabaeus
[3] = cells
[4] = Counterscreen for IDE inhibitors: Luminescence-based cell-based high throughput dose response assay to identify compounds that are cytotoxic to HEK cells. [Related pubchem assays: 434962 (Primary screen (IDE inhibitors in singlicate)), 449730 (Counterscreen (Cytotoxicity in triplicate)), 435028 (Confirmation (IDE inhibitors in triplicate)) …; format: functional; conditions: HEK293
[5] = target: T1, Insulin-degrading enzyme (Homo sapiens, UniProt P14735); test: Dose Response: Fluorescence polarization-based cell-based high throughput dose response assay for inhibitors of insulin-degrading enzyme (IDE). [Related pubchem assays: 434962 (Primary screen (IDE inhibitors in singlicate)), 449730 (Counterscreen (Cytotoxicity in triplicate)), 435028 (Confirmation (IDE inhibitors in triplicate)), 434984 (Summary …; format: functional
T1 sequence (P14735 whole entry): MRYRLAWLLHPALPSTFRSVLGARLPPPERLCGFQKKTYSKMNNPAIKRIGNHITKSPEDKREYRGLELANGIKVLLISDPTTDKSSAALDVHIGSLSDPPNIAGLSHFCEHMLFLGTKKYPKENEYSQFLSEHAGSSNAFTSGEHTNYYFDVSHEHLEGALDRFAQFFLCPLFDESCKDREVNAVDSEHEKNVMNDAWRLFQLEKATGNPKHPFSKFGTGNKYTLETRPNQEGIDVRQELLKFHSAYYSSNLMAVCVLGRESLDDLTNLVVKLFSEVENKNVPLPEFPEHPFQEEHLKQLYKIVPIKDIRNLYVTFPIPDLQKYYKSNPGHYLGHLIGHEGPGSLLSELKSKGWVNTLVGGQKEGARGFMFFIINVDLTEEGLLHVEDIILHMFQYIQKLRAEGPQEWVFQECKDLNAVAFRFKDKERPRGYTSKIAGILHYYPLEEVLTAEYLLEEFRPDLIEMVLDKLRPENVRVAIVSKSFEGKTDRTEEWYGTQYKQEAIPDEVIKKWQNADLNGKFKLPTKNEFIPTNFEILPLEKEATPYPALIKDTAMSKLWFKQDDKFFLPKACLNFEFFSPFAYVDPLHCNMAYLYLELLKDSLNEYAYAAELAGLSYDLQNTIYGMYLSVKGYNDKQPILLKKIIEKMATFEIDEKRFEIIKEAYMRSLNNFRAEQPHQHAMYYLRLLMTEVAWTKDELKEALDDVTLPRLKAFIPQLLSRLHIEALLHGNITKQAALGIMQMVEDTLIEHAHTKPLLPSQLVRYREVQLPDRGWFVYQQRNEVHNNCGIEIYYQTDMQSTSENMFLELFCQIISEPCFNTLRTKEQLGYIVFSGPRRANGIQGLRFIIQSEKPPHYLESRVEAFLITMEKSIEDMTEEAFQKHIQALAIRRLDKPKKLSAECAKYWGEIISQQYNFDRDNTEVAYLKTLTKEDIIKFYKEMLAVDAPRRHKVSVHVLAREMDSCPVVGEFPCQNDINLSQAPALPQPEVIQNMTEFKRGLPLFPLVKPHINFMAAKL

[6] = target: 26S proteasome non-ATPase regulatory subunit 14 (Homo sapiens, UniProt O00487); test: inhibition of proteasome subunit RPN11 – biochemical, fluorescence polarization, uHTS hits, confirmation (AID 602368); format: functional
26S proteasome non-ATPase regulatory subunit 14, sequence (O00487 whole entry): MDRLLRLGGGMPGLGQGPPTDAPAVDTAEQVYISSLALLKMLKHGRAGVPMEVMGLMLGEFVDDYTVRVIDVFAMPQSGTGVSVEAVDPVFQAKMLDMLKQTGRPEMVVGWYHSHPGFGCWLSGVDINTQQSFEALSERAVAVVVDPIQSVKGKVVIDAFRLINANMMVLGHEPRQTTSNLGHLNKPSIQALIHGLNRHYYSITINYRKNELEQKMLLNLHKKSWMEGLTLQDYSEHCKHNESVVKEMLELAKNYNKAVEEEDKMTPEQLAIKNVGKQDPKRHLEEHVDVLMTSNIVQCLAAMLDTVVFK

[7] = target: 72 kDa type IV collagenase (Homo sapiens, UniProt P08253); test: Dose Response validation of uHTS RPN11 inhibitor hits using a MMP-2 Fluorescence assay.; format: functional
72 kDa type IV collagenase, sequence (P08253 whole entry): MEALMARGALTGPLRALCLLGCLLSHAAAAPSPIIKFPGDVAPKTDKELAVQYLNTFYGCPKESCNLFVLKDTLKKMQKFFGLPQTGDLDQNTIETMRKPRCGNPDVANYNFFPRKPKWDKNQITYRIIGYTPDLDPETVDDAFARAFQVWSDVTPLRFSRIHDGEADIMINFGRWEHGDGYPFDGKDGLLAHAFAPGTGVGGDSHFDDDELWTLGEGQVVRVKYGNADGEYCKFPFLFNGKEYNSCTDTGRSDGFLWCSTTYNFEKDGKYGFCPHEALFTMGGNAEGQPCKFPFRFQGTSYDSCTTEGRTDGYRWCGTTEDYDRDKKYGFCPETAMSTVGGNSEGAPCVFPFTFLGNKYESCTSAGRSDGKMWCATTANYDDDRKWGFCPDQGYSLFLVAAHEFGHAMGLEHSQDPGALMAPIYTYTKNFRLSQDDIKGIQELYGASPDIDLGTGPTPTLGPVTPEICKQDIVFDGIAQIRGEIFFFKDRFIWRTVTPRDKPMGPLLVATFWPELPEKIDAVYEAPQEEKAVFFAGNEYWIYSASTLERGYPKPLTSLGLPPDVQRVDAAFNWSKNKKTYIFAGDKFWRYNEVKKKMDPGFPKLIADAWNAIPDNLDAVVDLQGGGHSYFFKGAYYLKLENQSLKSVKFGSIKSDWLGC

[8] = target: Prothrombin (Bos taurus, UniProt P00735); test: thrombin inhibition, dose response, biochemical, fluorescence polarization, uHTS hits (AID 602369); format: functional
[9] = target: Glyceraldehyde-3-phosphate dehydrogenase (Homo sapiens, UniProt P04406)
Glyceraldehyde-3-phosphate dehydrogenase, sequence (P04406 whole entry): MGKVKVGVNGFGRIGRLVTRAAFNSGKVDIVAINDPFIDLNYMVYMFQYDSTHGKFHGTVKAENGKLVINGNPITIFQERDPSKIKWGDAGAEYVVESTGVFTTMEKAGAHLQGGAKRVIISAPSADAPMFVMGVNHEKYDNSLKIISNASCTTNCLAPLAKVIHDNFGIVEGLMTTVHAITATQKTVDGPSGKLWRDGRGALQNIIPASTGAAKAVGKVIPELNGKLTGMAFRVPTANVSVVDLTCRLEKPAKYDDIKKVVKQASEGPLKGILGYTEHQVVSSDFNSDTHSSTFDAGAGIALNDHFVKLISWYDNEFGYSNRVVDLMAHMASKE

[10] = target: Heat shock cognate 71 kDa protein (Homo sapiens, UniProt P11142); test: In Vitro Hsc70 Dose Response Fluorescence Polarization Assay. [Related pubchem assays: 1072 ]
Heat shock cognate 71 kDa protein, sequence (P11142 whole entry): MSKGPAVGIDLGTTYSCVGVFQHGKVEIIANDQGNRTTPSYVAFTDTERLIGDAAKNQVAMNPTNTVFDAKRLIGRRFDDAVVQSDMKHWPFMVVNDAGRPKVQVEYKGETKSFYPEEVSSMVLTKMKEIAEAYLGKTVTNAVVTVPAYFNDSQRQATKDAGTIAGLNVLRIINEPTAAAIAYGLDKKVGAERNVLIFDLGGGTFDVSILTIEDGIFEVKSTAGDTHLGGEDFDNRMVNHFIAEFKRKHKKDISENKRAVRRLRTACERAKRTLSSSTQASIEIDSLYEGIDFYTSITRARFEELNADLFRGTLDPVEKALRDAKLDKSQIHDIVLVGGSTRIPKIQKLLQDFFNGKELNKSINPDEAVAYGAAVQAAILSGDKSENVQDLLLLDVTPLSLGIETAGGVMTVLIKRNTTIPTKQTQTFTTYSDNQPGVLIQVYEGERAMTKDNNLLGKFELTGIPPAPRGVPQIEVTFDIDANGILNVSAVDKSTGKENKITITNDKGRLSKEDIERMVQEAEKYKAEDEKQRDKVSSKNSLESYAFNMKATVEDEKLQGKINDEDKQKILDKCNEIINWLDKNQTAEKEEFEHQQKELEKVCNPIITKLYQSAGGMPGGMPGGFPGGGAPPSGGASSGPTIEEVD

[11] = target: Heat shock 70 kDa protein 1A (Homo sapiens, UniProt P0DMV8); test: Hsp70 inhibitors, SAR follow-up, biochemical, fluorescence polarization (AID 1072)
Heat shock 70 kDa protein 1A, sequence (P0DMV8 whole entry): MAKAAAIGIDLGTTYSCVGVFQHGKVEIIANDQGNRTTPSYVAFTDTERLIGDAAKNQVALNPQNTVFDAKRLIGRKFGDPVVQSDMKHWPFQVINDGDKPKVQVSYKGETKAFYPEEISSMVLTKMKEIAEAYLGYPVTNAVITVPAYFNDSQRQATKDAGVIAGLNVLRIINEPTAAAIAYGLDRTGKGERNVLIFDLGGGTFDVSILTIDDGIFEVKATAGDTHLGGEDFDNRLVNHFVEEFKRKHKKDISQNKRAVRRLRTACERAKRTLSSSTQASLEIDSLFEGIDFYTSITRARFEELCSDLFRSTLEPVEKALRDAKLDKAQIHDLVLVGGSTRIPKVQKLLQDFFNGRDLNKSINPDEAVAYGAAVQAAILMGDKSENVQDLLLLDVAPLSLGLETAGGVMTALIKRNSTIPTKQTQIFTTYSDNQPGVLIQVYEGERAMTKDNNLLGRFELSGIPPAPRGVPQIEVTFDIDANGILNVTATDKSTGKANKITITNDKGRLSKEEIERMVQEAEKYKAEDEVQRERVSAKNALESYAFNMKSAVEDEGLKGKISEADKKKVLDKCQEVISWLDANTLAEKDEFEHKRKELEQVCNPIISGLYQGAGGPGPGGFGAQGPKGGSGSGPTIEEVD

[12] = Luminescence Cell-Based Dose Confirmation HTS to Identify Activators of 5'UTR Stem-Loop Driven Alpha-Synuclein mRNA Translation in H4 Neuroglioblastoma Cells. [Related pubchem assays: 1829 (Project Summary), 1814 (Primary HTS)]; format: functional
[13] = Luminescence Cell-Based Dose Response HTS to Identify Activators of Luciferase Translation or Activity in H4 […] Cells. [Related pubchem assays: 1829 (Project Summary), 1814 (Primary HTS)]; format: functional
[14] = target: T2, Bcl-2-like protein 10 (Homo sapiens, UniProt Q9HD36); test: displacers of TR3 peptide from Bcl-B, primary screen, selectivity assay for Bfl-1 inhibitor project, biochemical, fluorescence polarization, FITC-TR3 peptide (AID 748);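 note: fluorescence polarization from a fluorescein-labelled TR3 peptide binding purified Bcl-B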
T2 sequence (Q9HD36 whole entry): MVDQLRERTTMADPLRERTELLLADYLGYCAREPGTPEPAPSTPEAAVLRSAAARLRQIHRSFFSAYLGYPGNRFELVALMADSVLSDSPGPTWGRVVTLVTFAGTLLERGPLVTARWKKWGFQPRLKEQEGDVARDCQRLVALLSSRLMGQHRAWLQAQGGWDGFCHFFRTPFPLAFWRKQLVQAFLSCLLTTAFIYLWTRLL

[15] = target: Luciferin 4-monooxygenase (Photinus pyralis, UniProt P08659); test: Counter Screen for Luciferase-based Assay Positives. [Related pubchem assays: 620, 618, 411 ]
Luciferin 4-monooxygenase, sequence (P08659 whole entry): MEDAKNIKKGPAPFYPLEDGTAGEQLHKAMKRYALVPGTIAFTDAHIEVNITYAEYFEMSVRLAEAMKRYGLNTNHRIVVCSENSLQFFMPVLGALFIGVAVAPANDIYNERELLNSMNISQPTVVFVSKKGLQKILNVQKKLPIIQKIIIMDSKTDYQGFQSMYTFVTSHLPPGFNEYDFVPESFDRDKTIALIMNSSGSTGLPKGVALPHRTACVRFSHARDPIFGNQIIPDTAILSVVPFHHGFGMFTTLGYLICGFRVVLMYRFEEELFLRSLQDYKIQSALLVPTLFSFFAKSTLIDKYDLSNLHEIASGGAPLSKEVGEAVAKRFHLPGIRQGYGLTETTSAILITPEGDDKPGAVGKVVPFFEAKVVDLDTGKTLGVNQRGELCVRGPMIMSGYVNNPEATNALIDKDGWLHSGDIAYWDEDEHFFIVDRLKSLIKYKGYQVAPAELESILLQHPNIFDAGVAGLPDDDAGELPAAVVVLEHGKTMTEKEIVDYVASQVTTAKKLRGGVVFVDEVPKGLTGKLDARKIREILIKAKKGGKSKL

[16] = system: H4; test: Luminescence Cell-Based Dose Response HTS to Identify Activators of 5'UTR Stem-Loop Driven Prion Protein mRNA Translation in H4 Neuroglioblastoma Cells. [Related pubchem assays: 1829 (Project Summary), 1814 (Primary HTS)]; format: functional; conditions: Homo sapiens
[17] = target: Large T antigen (Simian virus 40, UniProt P03070); format: functional, Betapolyomavirus macacae;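 note: Confirmatory-stage PubChem screen for compounds that inhibit SV40 T antigen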
Large T antigen, sequence (P03070 whole entry): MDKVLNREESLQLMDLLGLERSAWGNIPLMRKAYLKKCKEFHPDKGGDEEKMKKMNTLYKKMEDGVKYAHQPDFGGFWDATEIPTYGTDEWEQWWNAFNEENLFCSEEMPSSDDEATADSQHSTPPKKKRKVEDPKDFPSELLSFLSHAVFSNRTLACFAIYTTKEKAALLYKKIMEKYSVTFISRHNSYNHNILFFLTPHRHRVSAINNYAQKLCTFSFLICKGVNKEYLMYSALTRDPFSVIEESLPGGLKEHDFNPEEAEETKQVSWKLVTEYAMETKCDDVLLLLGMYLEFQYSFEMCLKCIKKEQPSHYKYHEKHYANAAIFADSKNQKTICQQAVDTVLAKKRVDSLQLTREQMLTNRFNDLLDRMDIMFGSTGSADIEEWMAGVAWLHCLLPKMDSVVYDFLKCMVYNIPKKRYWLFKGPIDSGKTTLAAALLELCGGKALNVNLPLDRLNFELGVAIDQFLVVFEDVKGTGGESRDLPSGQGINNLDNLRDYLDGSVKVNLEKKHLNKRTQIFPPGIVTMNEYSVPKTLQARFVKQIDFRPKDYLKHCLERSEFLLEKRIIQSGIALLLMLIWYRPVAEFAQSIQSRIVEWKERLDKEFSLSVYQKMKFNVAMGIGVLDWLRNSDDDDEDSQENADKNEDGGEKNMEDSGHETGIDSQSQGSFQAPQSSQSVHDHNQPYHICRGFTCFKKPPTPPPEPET

[18] = inhibitors of intracellular T. cruzi replication, confirmation, NIH3T3 host cells, beta-gal luminescence (AID 2044); format: functional, cell-based;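 note: intracellular parasites grown in NIH/3T3 mouse fibroblasts as host cells; luminescent beta-galactosidase reporter signal from transgenic T. cruzi replicating inside host cells; inhibitors lower the luminescence signal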
[19] = system: HT-1080; test: cytotoxicity in HT1080 fibrosarcoma cells, cell-based, fluorescence readout (AID 620); format: functional; conditions: Homo sapiens
[20] = cytotoxicity toward NIH3T3 fibroblasts, dose response, counter-screen, cell-based, ATP luminescence, mouse fibroblasts (AID 2010); format: functional;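 note: cells exposed to compound for about 90 hours before reading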
[21] = target: T3, Short transient receptor potential channel 4 (Mus musculus, UniProt Q9QUQ5); test: mouse TRPC4 channel inhibitors, dose response, cell-based, HEK293 TRPC4/mu-opioid, Fluo-4 calcium (AID 434942); format: functional;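 note: potency of inhibitors blocking the TRPC4 calcium response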
T3 sequence (Q9QUQ5 whole entry): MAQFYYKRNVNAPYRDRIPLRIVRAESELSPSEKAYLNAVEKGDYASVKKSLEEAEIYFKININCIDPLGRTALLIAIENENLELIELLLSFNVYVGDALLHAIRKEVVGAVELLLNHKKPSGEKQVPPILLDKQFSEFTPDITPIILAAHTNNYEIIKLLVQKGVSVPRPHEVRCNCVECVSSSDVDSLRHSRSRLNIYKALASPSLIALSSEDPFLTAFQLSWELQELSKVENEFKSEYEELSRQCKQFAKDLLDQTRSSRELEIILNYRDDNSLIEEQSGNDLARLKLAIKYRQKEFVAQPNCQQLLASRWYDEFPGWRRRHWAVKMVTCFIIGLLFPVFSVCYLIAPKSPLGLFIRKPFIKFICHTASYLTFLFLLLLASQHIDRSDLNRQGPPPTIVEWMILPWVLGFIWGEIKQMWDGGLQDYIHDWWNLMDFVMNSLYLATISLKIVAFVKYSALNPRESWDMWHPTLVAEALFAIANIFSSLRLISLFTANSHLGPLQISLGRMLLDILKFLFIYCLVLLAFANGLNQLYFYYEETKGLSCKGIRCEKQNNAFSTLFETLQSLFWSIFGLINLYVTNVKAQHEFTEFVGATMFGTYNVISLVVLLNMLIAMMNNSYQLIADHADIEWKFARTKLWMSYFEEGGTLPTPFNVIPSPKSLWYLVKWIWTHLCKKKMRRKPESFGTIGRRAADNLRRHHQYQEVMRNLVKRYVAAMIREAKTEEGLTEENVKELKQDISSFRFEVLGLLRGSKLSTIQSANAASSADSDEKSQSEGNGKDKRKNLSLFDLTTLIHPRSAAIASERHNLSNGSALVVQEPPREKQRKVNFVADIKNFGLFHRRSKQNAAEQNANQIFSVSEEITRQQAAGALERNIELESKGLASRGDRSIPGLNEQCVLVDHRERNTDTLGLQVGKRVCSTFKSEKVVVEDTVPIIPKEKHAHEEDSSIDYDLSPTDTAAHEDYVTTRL

[22] = system: INS1; test: beta cell apoptosis inhibitors, cytokine rescue, dose response, luminescence, retest (AID 449756); format: functional, cell-based; conditions: Rattus norvegicus, INS1;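 note: cell death triggered by IL-1 beta plus TNF-alpha plus IFN-gamma mixture; protective hits raise ATP signal compared with cytokine alone wells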
[23] = target: T4, DNA repair and recombination protein RAD54-like (Homo sapiens, UniProt Q92698); test: inhibitors of human RAD54 branch migration, confirmation, biochemical, fluorescence, cherry-picked samples, dose series (AID 651657); format: functional
T4 sequence (Q92698 whole entry): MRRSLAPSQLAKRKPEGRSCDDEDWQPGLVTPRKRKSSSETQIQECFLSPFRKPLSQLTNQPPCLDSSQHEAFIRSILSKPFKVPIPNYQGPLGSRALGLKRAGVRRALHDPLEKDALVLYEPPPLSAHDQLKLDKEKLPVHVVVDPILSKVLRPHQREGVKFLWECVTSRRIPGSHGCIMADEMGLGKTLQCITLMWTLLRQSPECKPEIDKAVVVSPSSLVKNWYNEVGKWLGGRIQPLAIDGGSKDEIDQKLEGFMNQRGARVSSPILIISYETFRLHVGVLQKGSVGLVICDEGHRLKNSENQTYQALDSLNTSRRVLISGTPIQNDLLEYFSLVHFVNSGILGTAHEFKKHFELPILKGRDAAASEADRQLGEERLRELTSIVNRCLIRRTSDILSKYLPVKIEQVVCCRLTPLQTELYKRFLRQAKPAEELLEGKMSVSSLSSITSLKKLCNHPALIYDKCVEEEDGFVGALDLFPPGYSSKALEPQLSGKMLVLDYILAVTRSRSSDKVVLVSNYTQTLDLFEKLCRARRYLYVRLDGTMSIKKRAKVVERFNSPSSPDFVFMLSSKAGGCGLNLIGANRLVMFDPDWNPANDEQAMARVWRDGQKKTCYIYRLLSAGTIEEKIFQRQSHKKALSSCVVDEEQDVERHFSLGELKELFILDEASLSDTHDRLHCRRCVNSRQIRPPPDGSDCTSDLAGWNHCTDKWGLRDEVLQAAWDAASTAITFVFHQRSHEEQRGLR

[24] = target: T5, DNA repair protein RAD52 homolog (Homo sapiens, UniProt P43351); format: functional, biochemical
T5 sequence (P43351 whole entry): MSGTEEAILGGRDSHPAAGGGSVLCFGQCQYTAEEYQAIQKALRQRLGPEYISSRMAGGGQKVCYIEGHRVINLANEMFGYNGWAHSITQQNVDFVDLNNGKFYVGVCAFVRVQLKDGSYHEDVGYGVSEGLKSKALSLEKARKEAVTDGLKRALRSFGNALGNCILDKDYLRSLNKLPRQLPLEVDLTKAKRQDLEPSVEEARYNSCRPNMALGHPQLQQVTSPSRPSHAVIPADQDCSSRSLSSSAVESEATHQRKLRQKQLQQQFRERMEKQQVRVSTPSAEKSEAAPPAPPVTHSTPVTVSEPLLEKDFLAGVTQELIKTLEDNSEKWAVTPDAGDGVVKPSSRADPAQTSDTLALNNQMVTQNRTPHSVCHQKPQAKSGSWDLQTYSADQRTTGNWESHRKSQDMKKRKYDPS

Cc1ccc(C(=O)Nc2ccccc2SCC2CSc3nc4ccccc4c(=O)n32)cc1 (centres undefined)
CC50 [1]: 27.7 µM (active) | IC50 [2]: 10.4 µM (active) | IC50 [3]: 11.4 µM (active)

COc1ccc(/N=C\c2oc3ccc4ccccc4c3c2O)cc1
IC50 [4]: > 55.7 µM (not active) | IC50 [5]: > 55.9 µM (not active) | IC50 [6]: 10 µM (active) | IC50 [7]: > 100 µM (inactive) | IC50 [8]: 3.81 µM (active)

O=C(O)/C=C/c1c2ccc(=O)c(O)c-2oc2c(O)c(O)ccc12
IC50 [9]: 15.8 µM (active) | IC50 [10]: 2.73 µM (active) | IC50 [11]: 0.332 µM (active)

Oc1ccc(Nc2nc(N3CCCC3)c3ccccc3n2)cc1
EC50 [12]: > 120 µM (not active) | EC50 [13]: 12.9 µM (active) | IC50 [14]: 43.9 µM (active) | EC50 [15]: < 0.2 µM (active) | EC50 [16]: > 120 µM (not active) | IC50 [17]: 4.72 µM (active) | EC50 [18]: 2.11 µM (active) | EC50 [19]: 25.7 µM (active) | EC50 [20]: 9.1 µM (active) | EC50 [21]: 5.96 µM (active) | AC50 [22]: 7.85 µM (active) | AC50 [23]: 6.91 µM (active) | AC50 [24]: 13.3 µM (active)
